Measurements reported in patent US20060281767A1, “Triazoloypyrimidines” (BAYER CROPSCIENCE AKTIENGESELLSCHAFT, priority 2003, published 2006).

Test system: not listed separately
Assay: LogP determination by HPLC (EEC-Directive 79/831 Annex V. A8)
Type: physicochemical
Conditions: HPLC with acetonitrile/0.1% aqueous phosphoric acid gradient, gradient method

Point of comparison: `Clc1ncsc1-c1c(Cl)nc2nc(C3CC3)nn2c1Cl` [Example 9, 5,7-dichloro-2-cyclopropyl-6-(4-chloro-thiazol-5-yl)-[1,2,4]-triazolo[1,5-a]pyrimidine], chromatographic logP 2.46. Against it:
- CC(Oc1c(-c2ncncc2Cl)c(Cl)nc2ncnn12)C(F)(F)F (stereo not drawn) [Example 1, 5-chloro-6-(5-chloro-pyrimidin4-yl)-7-(2,2,2-trifluoro-isopropoxy)[1,2,4]triazolo[1,5-a]pyrimidine] — within 0.2 log units, 2.43
- CC(C)C(C)Sc1c(-c2ncncc2Cl)c(Cl)nc2ncnn12 (stereo not drawn) [Example 2] — higher, 3.07
- FC(F)(F)c1cccnc1-c1c(Cl)nc2ncnn2c1Cl [Example 5, 5,7-dichloro-6-(3-trifluoromethyl-pyridin-2-yl)-[1,2,4]triazolo[1,5-a]pyrimidine] — lower, 1.97
- Clc1cncnc1-c1c(Cl)nc2ncnn2c1Cl [Example 6, 5,7-dichloro-6-(5-chloro-4-pyrimidinyl)[1,2,4]triazolo[1,5-a]pyrimidine] — lower, 1.43
- Oc1nc2ncnn2c(O)c1-c1ncccc1C(F)(F)F [Example 10, 6-(3-trifluoromethyl-pyridin-2-yl)-[1,2,4]triazolo[1,5-a]pyrimidin-5,7-diole] — lower, -0.23
- Oc1nc2ncnn2c(O)c1-c1ncncc1Cl [Example 11, 6-(5-chloro-4-pyrimidinyl)[1,2,4]triazolo[1,5-a]pyrimidin-5,7-diole] — lower, -0.23
- Oc1nc2nc(C3CC3)nn2c(O)c1-c1scnc1Cl [Example 12, 2-cyclopropyl-6-(4-chloro-thiazol-5-yl)-[1,2,4]triazolo[1,5-a]pyrimidin-5,7-diol] — lower, 0.1
- COC(=O)C(C(=O)OC)c1ncccc1C(F)(F)F [Example 13, 2-[(3-trifluoromethyl)-pyridin-2-yl]-malonic acid dimethylester] — lower, 2.05
- COC(=O)C(C(=O)OC)c1ncncc1Cl [Example 14, 2-(5-chloro-pyrimidin-4-yl)-malonic acid dimethylester] — lower, 1.33
- Clc1cncnc1Cl [Example 15, 4,5-dichloropyrimidine] — lower, 1.35

Test system: Venturia inaequalis
Assay: Venturia test (apple)/protective
Type: in vivo
Conditions: protective spray, assessment 10 days after inoculation, 0% = control, 100% = no attack
Text: Venturia Test (apple)/protective • Solvent: 24.5 parts by weight of acetone • 24.5 parts by weight of dimethylacetamide • Emulsifier: 1 part by weight of alkyl-aryl-polyglycolether One part by weight of active substance is mixed with the specified quantities of solvent and emulsifier and the concentrate diluted with water to the desired concentration to prepare a suitable active substance preparation. To test the protective efficiency, young plants are sprayed with the active substance preparation in the specified amount. After drying the spray coating, the plants are inoculated with an aqueous conodia suspension of the apple scab pathogen Venturia inaequalis and are then left for 1 day at about 20° C. and 100% relative humidity in an incubation cabinet. The plants are then placed in a greenhouse at about 21° C. and a relative humidity of about 90%. The assessment is made 10 days after the inoculation. In this situation 0% means an efficiency corresponding to that of the control whereas an efficiency of 100% means that no attack is observed.

In the case of `CC(C)C(C)Sc1c(-c2ncncc2Cl)c(Cl)nc2ncnn12` (stereo not drawn) [Example 2], the efficiency is reported as over 90%.
